# Experimental data as given in US20040039040A1, “Urea derivative and adhesive-molecule inhibitor containing the same as active ingredient” (priority 2000, published 2004).
# Test system: not given
# Experiment: not given
# Conditions: not given
row,melting point [°C],Compound
1,193 to 195,"O=C(N[C@@H](Cn1ccc(NC(=O)c2c(Cl)cccc2Cl)nc1=O)C(=O)O)NC1(C(=O)Nc2ccccc2)CCCCC1 [Compound 8, 3-(4-((2,6-dichlorophenyl)carbonylamino)-2-oxohydropyrimidinyl)-2-((((N-phenylcarbamoyl)cyclohexyl)amino)carbonylamino)propanoic Acid]"
2,250,O=C(Nc1ccc(C[C@@H](C(=O)O)N2C(=O)NC3(CCCCC3)C2=O)cc1)c1c(Cl)cccc1Cl [Compound 44]

# Target: VLA-4-IgG chimera protein (Homo sapiens, UniProt P05556+P13612)
# Experiment: Inhibitory effect against binding between CS-1 peptide and VLA-4-IgG chimera protein
# Conditions: binding of VLA-4-IgG chimera protein to immobilized CS-1 peptide-rabbit IgG conjugate; compound preincubated 20 min; 30° C. 3 hours; absorbance at 490 nm
# Method: The inhibitory activity of the compound according to the present invention against the adhesion of VLA-4 may be determined by using an adhesion-measuring system in which the adhesion between VLA-4-expressing cells such as Ramos cells or Jurkat cells and fibronectin or fibronectin fragment such as a peptide containing CS-1 sequence (Gly Pro Glu Ile Leu Asp Val Pro Ser Thr) (hereinafter referred to as “CS-1 peptide”), immobilized on an immunoplate is measured. Alternatively, a binding-measuring system in which the adhesion between VLA-4 protein and fibronectin or fibronectin fragment such as CS-1 peptide, immobilized on an immunoplate may be used. In the present invention, it is preferred to evaluate the inhibitory activity of a compound using a binding-measuring system in which adhesion between a chimera protein of VLA-4-immunoglobulin (VLA-4-IgG chimera protein) and CS-1 peptide (Japanese Patent Application No. H9-234544), but the method is not restricted thereto. The “VLA-4-IgG chimera protein” herein means the heterodimer complex of the chimera protein between α4 of VLA-4 and immunoglobulin (hereinafter referred to as “VLAα4-IgG chimera protein”) and a chimera protein between β1 of VLA-4 and immunoglobulin (hereinafter referred to as “VLAβ1-IgG chimera protein”). As the immunoglobulin, although heavy chain or light chain of IgG, IgM or the like may be used, IgG1 heavy chain is used in the present invention. When testing the inhibitory effect of a compound, it is preferred to mix VLA-4-IgG chimera protein and the test compound previously.
# In accordance with the teaching of a report (Humphrise, M. J. et al. J.Bio.Chem., 262,6886-6892(1987)), a conjugate between a peptide (Gys Leu His Gly Pro Glu Glu Ile Leu Asp Val Pro Ser Thr) containing CS-1 sequence and rabbit IgG (Sigma) was prepared. This was diluted with phosphate buffer (hereinafter referred to as “PBS(−)” for short), and the obtained solution was placed in the wells of a 96-well immunoplate (NUNC) in an amount of 100 μl/well, followed by leaving to stand the immunoplate at 4° C. for 16 hours to immobilize the conjugate.
# The wells were then washed twice with PBS(−), and 1% BSA solution in PBS, which BSA was heated at 80° C. for 10 minutes, was placed in each well in an amount of 300 μl/well. The immunoplate was left to stand at 4° C. for 3 hours, and then the solution in each well was removed by suction.
# Each compound and VLA-4-IgG chimera protein (100 μl) were preliminarily reacted at room temperature for 20 minutes, and then the resulting mixture was allowed to react with the CS-1 peptide in each well at 30° C. for 3 hours. Thereafter, non-bound VLA-4-IgG chimera protein was removed by suction, and each well was washed twice with 0.1% BSA-containing TBS buffer (150 mM NaCl, 25 mM Tris-HCl, 1 mM MnCl2, PH7.4). To the bound VLA-4-IgG chimera protein, biotin-labelled anti-human IgG antibody (Vector) as a primary antibody was added, and then avidin-labelled horse radish peroxidase (Sigma) as a secondary antibody was added, thereby allowing the reactions. Then o-phenylenediamine as a substrate was added to color the reaction solution, and the absorbance at 490 nm was measured. From this absorbance, the binding inhibitory activity of each compound was determined.
# Sequence of VLA-4-IgG chimera protein (P13612 with tags, fused parts or gaps limits assumed): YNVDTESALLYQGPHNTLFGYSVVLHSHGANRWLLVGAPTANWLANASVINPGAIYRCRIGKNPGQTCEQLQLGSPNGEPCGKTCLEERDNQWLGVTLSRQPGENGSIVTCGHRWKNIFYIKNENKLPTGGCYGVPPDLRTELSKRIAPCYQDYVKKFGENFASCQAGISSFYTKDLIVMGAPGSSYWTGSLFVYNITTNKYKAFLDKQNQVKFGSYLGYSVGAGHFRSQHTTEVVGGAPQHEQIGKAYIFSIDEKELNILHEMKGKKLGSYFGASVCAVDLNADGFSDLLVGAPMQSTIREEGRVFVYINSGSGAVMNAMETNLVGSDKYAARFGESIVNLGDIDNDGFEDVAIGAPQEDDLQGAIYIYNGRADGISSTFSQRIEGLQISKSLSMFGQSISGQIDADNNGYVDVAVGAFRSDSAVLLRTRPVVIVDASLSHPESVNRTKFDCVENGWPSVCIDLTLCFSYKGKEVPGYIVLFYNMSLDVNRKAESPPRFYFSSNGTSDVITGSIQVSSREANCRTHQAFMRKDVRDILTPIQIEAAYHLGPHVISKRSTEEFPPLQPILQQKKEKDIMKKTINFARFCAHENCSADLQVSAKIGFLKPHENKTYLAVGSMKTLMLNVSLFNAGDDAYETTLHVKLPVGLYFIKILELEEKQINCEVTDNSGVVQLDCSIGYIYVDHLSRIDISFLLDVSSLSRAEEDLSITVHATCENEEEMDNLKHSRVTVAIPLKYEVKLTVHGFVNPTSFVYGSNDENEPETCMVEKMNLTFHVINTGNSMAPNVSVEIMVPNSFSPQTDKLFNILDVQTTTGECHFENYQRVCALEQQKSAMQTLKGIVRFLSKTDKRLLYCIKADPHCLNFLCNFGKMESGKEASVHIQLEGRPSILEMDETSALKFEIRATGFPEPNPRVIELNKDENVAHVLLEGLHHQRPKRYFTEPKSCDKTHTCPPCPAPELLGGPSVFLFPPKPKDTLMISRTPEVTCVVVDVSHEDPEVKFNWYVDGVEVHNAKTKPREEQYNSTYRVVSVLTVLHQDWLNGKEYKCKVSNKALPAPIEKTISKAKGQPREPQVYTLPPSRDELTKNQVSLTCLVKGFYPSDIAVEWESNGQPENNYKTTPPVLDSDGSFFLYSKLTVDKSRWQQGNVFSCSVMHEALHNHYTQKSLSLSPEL
# Sequence of VLA-4-IgG chimera protein (P05556 with tags, fused parts or gaps limits assumed): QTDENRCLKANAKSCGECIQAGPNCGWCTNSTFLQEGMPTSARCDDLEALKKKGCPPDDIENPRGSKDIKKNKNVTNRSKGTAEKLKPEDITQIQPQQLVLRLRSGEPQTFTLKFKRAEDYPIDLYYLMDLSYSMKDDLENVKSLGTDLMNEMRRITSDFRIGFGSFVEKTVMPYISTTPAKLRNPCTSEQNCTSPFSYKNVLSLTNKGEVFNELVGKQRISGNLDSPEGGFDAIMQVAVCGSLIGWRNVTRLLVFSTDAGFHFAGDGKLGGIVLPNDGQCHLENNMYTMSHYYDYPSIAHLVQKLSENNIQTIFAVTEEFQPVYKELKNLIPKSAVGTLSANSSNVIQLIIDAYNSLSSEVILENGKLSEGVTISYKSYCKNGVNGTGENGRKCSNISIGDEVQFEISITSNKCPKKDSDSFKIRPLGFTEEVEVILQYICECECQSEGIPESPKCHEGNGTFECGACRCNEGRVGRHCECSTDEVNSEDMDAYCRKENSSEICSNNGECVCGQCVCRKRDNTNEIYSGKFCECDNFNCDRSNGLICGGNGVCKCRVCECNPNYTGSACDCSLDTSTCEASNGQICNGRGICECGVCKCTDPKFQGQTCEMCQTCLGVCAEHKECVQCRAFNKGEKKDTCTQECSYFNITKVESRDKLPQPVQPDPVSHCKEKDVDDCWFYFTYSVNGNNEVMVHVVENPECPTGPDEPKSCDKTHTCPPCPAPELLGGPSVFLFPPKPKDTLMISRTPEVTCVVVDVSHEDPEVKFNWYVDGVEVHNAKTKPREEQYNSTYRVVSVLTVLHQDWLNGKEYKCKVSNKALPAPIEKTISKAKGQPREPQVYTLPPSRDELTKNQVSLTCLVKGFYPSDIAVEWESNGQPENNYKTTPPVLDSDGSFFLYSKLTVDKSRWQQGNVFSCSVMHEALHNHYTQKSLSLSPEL
row,Compound,IC50 [nM]
1,"CS(=O)(=O)N1CC2(CCN(C(=O)N[C@@H](Cn3ccc(NC(=O)c4c(Cl)cccc4Cl)nc3=O)C(=O)O)CC2)c2ccccc21 [Compound 28, 3-(4-((2,6-dichlorophenyl)carbonylamino)-2-oxohydropyrimidinyl)-2-((1-(methylsulfonyl)spiro[indoline-3,4′-piperidin]-10-yl)carbonylamino)propanoic Acid]",3.8
2,"O=C(Nc1ccn(C[C@H](NC(=O)N2CCC(n3c(=O)[nH]c4ccccc43)CC2)C(=O)O)c(=O)n1)c1c(Cl)cccc1Cl [Compound 32, 3-(4-((2,6-dichlorophenyl)carbonylamino)-2-oxohydropyrimidinyl)-2-((4-(2-oxo-3-azaindolinyl)piperidyl)carbonylamino)propanoic Acid]",0.97
3,"C[C@@H]1CCC[C@H](C)N1C(=O)N[C@@H](Cn1ccc(NC(=O)c2c(Cl)cccc2Cl)nc1=O)C(=O)O [Compound 50, 3-(4-((2,6-dichlorophenyl)carbonylamino)-2-oxohydropyrimidinyl)-2-((2,6-dimethylpiperidyl)carbonylamino)propanoic Acid]",4.5

# Results, then the molecule that gave them:
row,IC50 [nM],Compound
1,2.4,O=C(Nc1ccn(C[C@H](NC(=O)N2CCC3(CC2)C(=O)NCN3c2ccccc2)C(=O)O)c(=O)n1)c1c(Cl)cccc1Cl [Compound 35]
2,3.5,CC(=O)NC1(c2ccccc2)CCN(C(=O)N[C@@H](Cn2ccc(NC(=O)c3c(Cl)cccc3Cl)nc2=O)C(=O)O)CC1 [Compound 37]
